The record followed here is ChEMBL document CHEMBL1201862, “PubChem BioAssay data set” (2004).

Molecules are shown by their SMILES. Active and inactive are the calls of the source.

The target of experiment [1] is T1, Oxysterols receptor LXR-beta (Homo sapiens, UniProt P55055).
T1 sequence (P55055 whole entry): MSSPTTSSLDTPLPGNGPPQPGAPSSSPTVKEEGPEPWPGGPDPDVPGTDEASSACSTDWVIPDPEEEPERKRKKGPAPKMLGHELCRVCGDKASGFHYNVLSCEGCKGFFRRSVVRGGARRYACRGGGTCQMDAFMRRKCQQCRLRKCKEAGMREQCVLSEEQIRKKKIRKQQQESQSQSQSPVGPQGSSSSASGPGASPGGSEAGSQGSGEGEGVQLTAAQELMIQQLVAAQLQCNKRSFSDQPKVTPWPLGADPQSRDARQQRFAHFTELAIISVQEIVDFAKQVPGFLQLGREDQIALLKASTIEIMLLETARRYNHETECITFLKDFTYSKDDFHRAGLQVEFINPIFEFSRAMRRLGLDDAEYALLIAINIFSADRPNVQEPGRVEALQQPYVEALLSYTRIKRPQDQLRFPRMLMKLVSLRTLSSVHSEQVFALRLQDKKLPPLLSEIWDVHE
Nature of the experiment: LXR agonists, Gal4 luciferase reporter, dose response, counter-screen for ssDAF-12 agonist project, cell-based, luminescence, HEK293, S. stercoralis campaign (AID 720737). The settings on record: read-out: IC50 (the source's name). The experiment is classed as functional.

A short description of experiment [2]: Luminescence-based cell-based high throughput dose response assay to identify activators of the DAF-12 from the parasite S. stercoralis (ssDAF-12). The experiment is classed as functional.
The target of experiment [3] is T1, Oxysterols receptor LXR-beta. The class given is functional, cell-based.
Another experiment has as its target T2, Caspase-6 (Homo sapiens, UniProt P55212).
T2 sequence (P55212 whole entry): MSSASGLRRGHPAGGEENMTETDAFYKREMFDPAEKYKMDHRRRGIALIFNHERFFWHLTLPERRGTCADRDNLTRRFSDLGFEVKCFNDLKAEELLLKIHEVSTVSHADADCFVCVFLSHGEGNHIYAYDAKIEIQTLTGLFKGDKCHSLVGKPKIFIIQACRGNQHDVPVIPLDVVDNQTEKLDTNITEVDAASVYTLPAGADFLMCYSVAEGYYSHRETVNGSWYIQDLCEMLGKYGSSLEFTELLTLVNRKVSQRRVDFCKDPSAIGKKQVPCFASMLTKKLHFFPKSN
Nature of the experiment: human caspase-6 inhibitors, dose response, biochemical, VEID-R110 fluorescence, cherry-pick (AID 720632).

Another experiment concerns the target Prothrombin (Homo sapiens, UniProt P00734). Description: Thrombin 1536 HTS Dose Response Confirmation. [Related pubchem assays: 1046 (Thrombin 1536 HTS; hits were confirmed in this assay)]. The experiment is classed as functional.
The target in a further experiment is T3, Hexokinase HKDC1 (Homo sapiens, UniProt Q2TB90).
T3 sequence (Q2TB90 whole entry): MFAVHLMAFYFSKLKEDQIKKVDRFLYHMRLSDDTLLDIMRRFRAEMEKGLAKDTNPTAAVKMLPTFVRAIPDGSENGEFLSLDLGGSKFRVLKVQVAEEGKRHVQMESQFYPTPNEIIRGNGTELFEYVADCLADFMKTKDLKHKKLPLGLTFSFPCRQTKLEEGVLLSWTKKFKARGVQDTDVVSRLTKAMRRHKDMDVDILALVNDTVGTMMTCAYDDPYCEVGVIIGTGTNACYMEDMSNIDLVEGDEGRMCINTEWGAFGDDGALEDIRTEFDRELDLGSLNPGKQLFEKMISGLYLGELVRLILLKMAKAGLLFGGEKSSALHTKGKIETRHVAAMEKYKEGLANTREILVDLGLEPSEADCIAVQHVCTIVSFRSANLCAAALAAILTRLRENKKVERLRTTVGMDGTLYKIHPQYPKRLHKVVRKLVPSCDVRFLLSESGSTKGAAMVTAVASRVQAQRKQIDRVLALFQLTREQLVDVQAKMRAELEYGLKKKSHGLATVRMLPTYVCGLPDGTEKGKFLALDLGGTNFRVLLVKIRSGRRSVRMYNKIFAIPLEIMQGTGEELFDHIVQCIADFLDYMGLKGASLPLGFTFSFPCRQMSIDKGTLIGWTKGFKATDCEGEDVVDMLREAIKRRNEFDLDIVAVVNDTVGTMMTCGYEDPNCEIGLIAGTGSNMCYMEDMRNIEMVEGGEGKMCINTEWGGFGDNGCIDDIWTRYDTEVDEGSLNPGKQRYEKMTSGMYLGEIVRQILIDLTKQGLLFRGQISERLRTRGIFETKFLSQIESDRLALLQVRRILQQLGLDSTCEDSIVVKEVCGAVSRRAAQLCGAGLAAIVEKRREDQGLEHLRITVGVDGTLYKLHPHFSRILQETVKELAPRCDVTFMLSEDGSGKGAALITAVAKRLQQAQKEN
Description: HKDC1 hexokinase inhibitors, dose response, biochemical, W721R variant (AID 504729). The class given is functional.

Experiment [4] can be described thus: control 3'UTR Renilla luciferase suppression, dose response, counter-screen for Shn3 inhibitor project, cell-based, Clone20-Shn3RL, cherry-picked (AID 624133). The class given is functional.
Experiment [5] can be described thus: HepG2 cell cytotoxicity, dose response, cytotoxicity control for Shn3 inhibitor project, CellTiter-Glo, cherry-picked (AID 624134). The class given is functional, cell-based.
Experiment [6] can be described thus: Shn3 3'UTR reporter inhibitors, dose response, cell-based, Clone20 osteoblasts, firefly luciferase, cherry-picked (AID 624132).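 Further: firefly luciferase luminescence from reporter carrying the Shn3 3'UTR in osteoblasts.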 The experiment is classed as functional.
Experiment [7] is described as follows: insulin promoter down-regulators in MIN6 cells, imaging, high-content screening, mouse beta cells (AID 1628). The experiment is classed as functional.
Experiment [8] in a line: cytotoxicity in MIN6 insulinoma cells, dose response, cytotoxicity control, cell-based, mouse insulinoma (AID 2122).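 Further: confirmatory high-throughput counterscreen run to flag cytotoxic compounds; mouse MIN-6 beta cells carrying an insulin promoter eGFP reporter.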 The class given is functional.
Experiment [9] is described as follows: reduction of Shn3 3'UTR firefly luciferase signal, dose response, Schnurri-3 inhibitor project, cell-based, Clone20 osteoblasts, cherry-pick, set 2 (AID 720490).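 Further: actives lower the luminescence signal as inhibitors.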 The experiment is classed as functional.
Experiment [10] is described as follows: ADAM10 protease inhibitors, dose response, selectivity assay for ADAM17 exosite inhibitor project, biochemical, FRET peptide substrate, recombinant human ADAM10 (AID 743259).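 Further: ADAM10 enzyme cleaving a FRET peptide substrate.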
The target of experiment [11] is Disintegrin and metalloproteinase domain-containing protein 17 (Homo sapiens, UniProt P78536). Description: exosite inhibitors of ADAM17, dose response, biochemical (AID 743260).
Sequence of Disintegrin and metalloproteinase domain-containing protein 17 (P78536 whole entry, the tested form may be a part): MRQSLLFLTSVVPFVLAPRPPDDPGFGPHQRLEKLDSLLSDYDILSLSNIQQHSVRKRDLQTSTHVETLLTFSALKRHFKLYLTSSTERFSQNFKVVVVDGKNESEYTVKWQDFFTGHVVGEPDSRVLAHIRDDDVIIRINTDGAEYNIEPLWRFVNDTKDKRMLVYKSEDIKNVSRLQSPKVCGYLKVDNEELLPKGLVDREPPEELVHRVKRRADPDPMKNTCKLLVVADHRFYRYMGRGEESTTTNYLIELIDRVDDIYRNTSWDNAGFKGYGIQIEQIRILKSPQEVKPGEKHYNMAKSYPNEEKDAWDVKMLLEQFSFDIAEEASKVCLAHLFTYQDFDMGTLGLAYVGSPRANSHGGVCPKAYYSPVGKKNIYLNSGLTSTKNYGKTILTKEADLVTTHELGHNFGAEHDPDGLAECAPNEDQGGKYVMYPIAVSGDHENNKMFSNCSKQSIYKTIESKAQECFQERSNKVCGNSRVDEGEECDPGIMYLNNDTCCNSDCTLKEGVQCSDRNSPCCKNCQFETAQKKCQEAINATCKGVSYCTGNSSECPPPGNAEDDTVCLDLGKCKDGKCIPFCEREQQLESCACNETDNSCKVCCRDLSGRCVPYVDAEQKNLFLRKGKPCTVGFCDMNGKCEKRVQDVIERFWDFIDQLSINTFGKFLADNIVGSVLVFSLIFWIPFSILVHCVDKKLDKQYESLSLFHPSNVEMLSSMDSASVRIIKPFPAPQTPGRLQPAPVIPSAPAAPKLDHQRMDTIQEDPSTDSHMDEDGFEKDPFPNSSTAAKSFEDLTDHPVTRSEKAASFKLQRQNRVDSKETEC

`O=C(Nc1ccc2c(c1)OCCO2)Nc1ccc2c(c1)OCO2`: the EC50 in [1] is > 67.6 µM (inactive). Moreover, the IC50 in experiment [2] is > 67.6 µM (inactive).
Regarding `COc1ccccc1-c1nc(-c2ccc(Br)o2)no1`, the EC50 (in experiment [1]; in experiment [3]; in “cells”) was > 67.5 µM (inactive) throughout. In addition, in [2], the IC50 was > 67.5 µM (inactive).
As to `COc1ccc(CCN2CC(C(=O)NCCc3ccc(C)cc3)CC2=O)cc1OC` (centres undefined), the AC50 at Caspase-6 is 20.1 µM (active).
`COc1ccc(C2CC(c3ccccc3)=NN2C(=O)CN2CCN(Cc3ccccc3)CC2)cc1` (centres undefined): the IC50 against Prothrombin was > 50 µM (not active).
On the same count and under the same terms, the result for `C#CCOCCOCCOCCNc1nc(N2CCN(C(=O)Cn3cc(CC(C)O)nn3)CC2)nc(N2CCN(C(=O)[C@H](C)n3cc(CCCN=C(N)N)nn3)CC2)n1` (some centres undefined) reads 6.8 µM (active); that for `Nc1nc(CN2CCCCC2)cs1`, > 50 µM (not active).
As for `O=Cc1[nH]c2ccccc2c1N(C(=O)CCl)c1ccccc1`, the IC50 on Hexokinase HKDC1 was 43.4 µM (inactive).
As for `CCN(CC)c1ccc(NC(=O)CN2C(=O)CSc3ncccc32)c(C)c1`, the AC50 in [4] was 10.2 µM (active); in experiment [5], 31.9 µM (active); in experiment [6], 1.78 µM (active); in experiment [9], 2.17 µM (active). Further, the IC50 in experiment [7] is 1.33 µM (active); in experiment [8], 0.713 µM (active).
In the case of `CCOC(=O)c1ccc(NC(=O)C2CCCN(S(=O)(=O)c3ccc(F)cc3)C2)cc1` (centres undefined), the figures for the IC50 in experiment [10] and in experiment [11] were > 7.72 µM (active) and > 69.5 µM (inactive), respectively.
